# Experimental data taken from paper PMC5578959, “Selective LRRK2 kinase inhibition reduces phosphorylation of endogenous Rab10 and Rab12 in human peripheral mononuclear blood cells” (Scientific Reports, 2017).
# Like-named read-outs stand apart in the source and are kept apart here.
# Legend:
# [1] = test system: Regulator of telomere elongation helicase 1 (RTEL1); assay: Global proteome analysis, immune stimulated human PBMCs; format: cell-based; conditions: 100 nM, 24 hrs
# Description: (§1) Freshly isolated PBMCs were plated at a density ranging from 7–20 × 10^6 cells in 10 cm petri dishes (Costar 3262) in RPMI-1640 media (Gibco 61870–010) supplemented with 10% non-heat inactivated FBS, 5 ml Antimycotic (Sigma cat:5965) with or without an immune stimulation cocktail consisting of 400 nM phorbol 12-myristate 13-acetate (PMA) and 100 ng/ml interferon-γ (INF-γ). After 48 hrs in culture the cultures were added a fifth of the volume media containing 5x the final concentration of the respective LRRK2 inhibitor with or without PMA and interferon-γ. […] Approximately, 400 µg of protein from each individual donor was needed in order to run the full PBMC stimulation and inhibition study with subsequent global proteome and phosphoproteome (PhosphoScout®) analyses. […]
# (§2) Upon the respective treatments cells were washed with cold PBS, snap-frozen in liquid N2 and shipped to Evotec on dry-ice. […] Cell lysis was performed in ice-cold lysis buffer (8 M urea, 50 mM Tris pH 8.2, 10 mM sodium pyrophosphate, 5 mM EDTA, 5 mM EGTA, 10 mM sodium fluoride, 10 mM β-glycerophosphate, 10 mM sodium orthovanadate, phosphatase inhibitor cocktail 2 and 3 (Sigma, 1:100 (v/v)) and Complete protease inhibitor cocktail tablets (Roche). Cell extracts were sonicated on ice and the cell debris was removed by centrifugation before protein concentrations were determined (Bradford, BioRad). […]
# LRRK2 = assay: as above; format: cell-based; conditions: 100 nM, 24 hrs, not statistically significant (q-value: 0.08)
# Description: as §1, §2
# RAB12 = assay: Phosphoproteomic analysis, immune stimulated human PBMCs; format: cell-based; conditions: 100 nM, 24 hrs
# Description: as §1, §2
# RAB10 = assay: as above; format: cell-based; conditions: 100 nM, 24 hrs
# Description: as §1, §2
# LRRK2 WT = LRRK2 WT (Homo sapiens, UniProt Q5S007); assay: Odyssey CLx 96-well ICW assay, LRRK2-Ser935 phosphorylation in transfected HEK293 cells; format: cell-based; conditions: transiently transfected HEK293 cells, 1 h, mean, n = 3
# LRRK2 WT, sequence (Q5S007 whole entry): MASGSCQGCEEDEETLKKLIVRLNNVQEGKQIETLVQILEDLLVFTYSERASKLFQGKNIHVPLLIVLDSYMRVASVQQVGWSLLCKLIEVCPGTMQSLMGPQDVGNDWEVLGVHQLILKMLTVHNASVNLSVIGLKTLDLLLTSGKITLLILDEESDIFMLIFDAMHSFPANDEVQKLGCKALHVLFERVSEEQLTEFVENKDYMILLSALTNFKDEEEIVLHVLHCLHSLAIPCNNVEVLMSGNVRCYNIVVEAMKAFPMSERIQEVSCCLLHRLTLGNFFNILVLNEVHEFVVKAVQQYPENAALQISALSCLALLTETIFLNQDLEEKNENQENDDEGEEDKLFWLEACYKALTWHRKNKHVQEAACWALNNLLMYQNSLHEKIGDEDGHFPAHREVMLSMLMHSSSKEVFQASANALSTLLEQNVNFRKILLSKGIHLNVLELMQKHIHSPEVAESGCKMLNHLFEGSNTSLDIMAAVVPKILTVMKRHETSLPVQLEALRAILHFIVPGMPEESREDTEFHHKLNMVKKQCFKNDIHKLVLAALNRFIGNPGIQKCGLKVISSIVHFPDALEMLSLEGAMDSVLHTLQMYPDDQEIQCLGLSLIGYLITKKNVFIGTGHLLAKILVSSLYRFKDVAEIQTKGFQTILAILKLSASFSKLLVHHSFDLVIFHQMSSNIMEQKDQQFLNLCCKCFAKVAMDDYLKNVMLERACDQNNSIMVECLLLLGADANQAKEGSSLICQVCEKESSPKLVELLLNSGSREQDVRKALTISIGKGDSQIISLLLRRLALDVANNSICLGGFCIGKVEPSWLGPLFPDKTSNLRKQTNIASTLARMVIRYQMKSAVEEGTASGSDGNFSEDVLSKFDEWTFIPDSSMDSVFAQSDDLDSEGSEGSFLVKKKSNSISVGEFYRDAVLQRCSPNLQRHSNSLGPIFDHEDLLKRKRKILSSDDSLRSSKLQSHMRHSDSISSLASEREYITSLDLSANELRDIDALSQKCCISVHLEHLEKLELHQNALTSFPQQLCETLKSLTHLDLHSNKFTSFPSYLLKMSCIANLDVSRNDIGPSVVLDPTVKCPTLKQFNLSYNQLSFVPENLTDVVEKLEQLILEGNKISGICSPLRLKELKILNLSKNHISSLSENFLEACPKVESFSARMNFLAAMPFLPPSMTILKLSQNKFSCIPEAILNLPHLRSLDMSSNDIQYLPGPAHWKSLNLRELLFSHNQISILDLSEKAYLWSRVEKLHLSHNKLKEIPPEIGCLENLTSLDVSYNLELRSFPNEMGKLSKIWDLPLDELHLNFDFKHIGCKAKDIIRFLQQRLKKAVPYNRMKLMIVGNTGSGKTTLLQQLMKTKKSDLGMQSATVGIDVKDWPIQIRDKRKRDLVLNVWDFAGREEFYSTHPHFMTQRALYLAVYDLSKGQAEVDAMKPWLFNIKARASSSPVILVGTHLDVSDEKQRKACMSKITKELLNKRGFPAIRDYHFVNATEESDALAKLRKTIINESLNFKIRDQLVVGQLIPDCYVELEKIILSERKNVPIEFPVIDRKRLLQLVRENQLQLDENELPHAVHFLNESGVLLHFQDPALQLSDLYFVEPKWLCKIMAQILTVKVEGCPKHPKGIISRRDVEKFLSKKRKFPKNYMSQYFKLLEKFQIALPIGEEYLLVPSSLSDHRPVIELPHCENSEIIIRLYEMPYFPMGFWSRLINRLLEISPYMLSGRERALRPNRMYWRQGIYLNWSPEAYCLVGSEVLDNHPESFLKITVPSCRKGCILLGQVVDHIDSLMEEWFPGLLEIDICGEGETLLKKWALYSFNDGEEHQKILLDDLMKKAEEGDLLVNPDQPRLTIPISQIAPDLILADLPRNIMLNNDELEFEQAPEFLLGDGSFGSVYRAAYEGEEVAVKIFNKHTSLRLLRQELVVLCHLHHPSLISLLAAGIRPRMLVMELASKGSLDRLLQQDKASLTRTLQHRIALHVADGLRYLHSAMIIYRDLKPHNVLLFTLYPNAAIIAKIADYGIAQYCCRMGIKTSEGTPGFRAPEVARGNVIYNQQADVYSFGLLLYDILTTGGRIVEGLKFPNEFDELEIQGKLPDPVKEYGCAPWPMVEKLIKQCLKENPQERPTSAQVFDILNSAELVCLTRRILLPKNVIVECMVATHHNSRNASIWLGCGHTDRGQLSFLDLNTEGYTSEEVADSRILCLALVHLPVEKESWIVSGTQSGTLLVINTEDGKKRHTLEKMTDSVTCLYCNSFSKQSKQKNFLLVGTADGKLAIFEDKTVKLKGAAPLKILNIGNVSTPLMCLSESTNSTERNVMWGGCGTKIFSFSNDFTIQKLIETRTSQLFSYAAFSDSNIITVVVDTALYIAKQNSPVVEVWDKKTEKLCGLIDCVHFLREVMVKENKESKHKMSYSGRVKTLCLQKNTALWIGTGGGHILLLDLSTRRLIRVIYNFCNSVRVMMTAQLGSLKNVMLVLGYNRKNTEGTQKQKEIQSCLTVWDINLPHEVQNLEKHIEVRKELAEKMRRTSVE
# Description: (§3) Plasmids encoding various LRRK2 and Rab GTPase protein variants were transiently expressed in HEK293 cells using Lipofectamine®2000 according to the manufacturer’s instructions (Thermo Fisher Scientific, US).
# (§4) HEK293 cells grown in clear-bottom 96-well plates were transfected with either wild type LRRK2, kinase overactive variant G2019S, inhibition-resistant mutant A2016T or mock, respectively. […] Subsequently, the plates were processed as previously described.
# LRRK2 G2019S = molecular target: T1, LRRK2 G2019S (Homo sapiens, UniProt Q5S007, G2019S); assay: as above; format: cell-based; conditions: transiently transfected HEK293 cells, overactive variant G2019S, 1 h, mean, n = 3
# T1 construct: expressed in transfected cells; host or cells: HEK293
# T1 sequence (Q5S007 whole entry G2019S): as the sequence (Q5S007 whole entry) above, with G2019S counted along it
# Description: as §3, §4
# LRRK2 A2016T = molecular target: T2, LRRK2 A2016T (Homo sapiens, UniProt Q5S007, A2016T); assay: as above; format: cell-based; conditions: transiently transfected HEK293 cells, inhibition resistant mutant A2016T, 1 h, mean, n = 3
# T2 construct: expressed in transfected cells; host or cells: HEK293
# T2 sequence (Q5S007 whole entry A2016T): as the sequence (Q5S007 whole entry) above, with A2016T counted along it
# Description: as §3, §4
# CK2a1 = test system: T3, CK2a1; assay: KiNativ profiling in human PBMCs; format: binding; conditions: Protein Kinase Domain
# T3 construct: purchased ActivX Technologies (KiNativ)
# PKCd = test system: T4, PKCd; assay: KiNativ profiling in human PBMCs; format: binding; conditions: Lys2
# T4 construct: purchased ActivX Technologies (KiNativ)
# MAP3K3 = test system: T5, MAP3K3; assay: KiNativ profiling in human PBMCs; format: binding; conditions: Lys1
# T5 construct: purchased ActivX Technologies (KiNativ)
# PKD3 = test system: T6, PKD3; assay: KiNativ profiling in human PBMCs; format: binding
# T6 construct: purchased ActivX Technologies (KiNativ)
# NEK3 = test system: T7, NEK3; assay: KiNativ profiling in human PBMCs; format: binding; conditions: Activation Loop
# T7 construct: purchased ActivX Technologies (KiNativ)
# PKCh = test system: T8, PKCh; assay: KiNativ profiling in human PBMCs; format: binding; conditions: Lys1
# T8 construct: purchased ActivX Technologies (KiNativ)
# MAST4 = test system: T9, MAST4; assay: KiNativ profiling in human PBMCs; format: binding; conditions: Lys2
# T9 construct: purchased ActivX Technologies (KiNativ)
# CK1a = test system: T10, CK1a; assay: KiNativ profiling in human PBMCs; format: binding; conditions: Lys2
# T10 construct: purchased ActivX Technologies (KiNativ)
# PCTAIRE2, PCTAIRE3 = assay: KiNativ profiling in human PBMCs; format: binding; conditions: Lys1
# CHED = conditions: Lys2
structure (smiles),measurement,setting,value
Cc1cccc(-c2cc(Nc3ccn(C)n3)nc3[nH]cc(C#N)c23)c1 [Lu AF58786],RTEL1 expression level downregulated,[1],2 fold
same,LRRK2 down-regulated on the protein level,LRRK2,approximately 1.7 fold
same,"reduced level of phosphorylation, Ser106 on Rab12",RAB12,approximately 2 fold
same,"reduced level of phosphorylation, Thr73 on Rab10",RAB10,approximately 2 fold
same,IC50,LRRK2 WT,12 nM
same,IC50,LRRK2 G2019S,19 nM
same,IC50,LRRK2 A2016T,93 nM
Cn1cc(-c2c[nH]c3ncnc(N4CCOCC4)c23)cc1C#N [PFE-360],% Inhibition,CK2a1; 0.1µM,-27.7%
same,% Inhibition,CK2a1; 1µM,-26.5%
same,% Inhibition,PKCd; 0.1µM,3.5%
same,% Inhibition,PKCd; 1µM,-0.6%
same,% Inhibition,MAP3K3; 0.1µM,18.3%
same,% Inhibition,MAP3K3; 1µM,16.1%
same,% Inhibition,"PKD3; 0.1µM, Lys1",1.2%
same,% Inhibition,"PKD3; 0.1µM, Lys2",17.6%
same,% Inhibition,"PKD3; 1µM, Lys1",-10.7%
same,% Inhibition,"PKD3; 1µM, Lys2",-1.1%
same,% Inhibition,NEK3; 0.1µM,-10.8%
same,% Inhibition,NEK3; 1µM,1.2%
same,% Inhibition,PKCh; 0.1µM,-10.3%
same,% Inhibition,PKCh; 1µM,-11%
same,% Inhibition,MAST4; 0.1µM,-5.7%
same,% Inhibition,MAST4; 1µM,-21.4%
same,% Inhibition,CK1a; 0.1µM,-17.4%
same,% Inhibition,CK1a; 1µM,4.6%
same,% Inhibition,"PCTAIRE2, PCTAIRE3; 0.1µM",-34%
same,% Inhibition,"PCTAIRE2, PCTAIRE3; 1µM",11.6%
same,% Inhibition,CHED; 0.1µM,4.9%
same,% Inhibition,CHED; 1µM,-1.5%
